For experiment [1], the target named is T1, recombinant rat GluN1/GluN2A (Rattus norvegicus, UniProt Q00959).
T1 construct: expressed in transfected cells; host or cells: Xenopus laevis oocytes injected with cRNA (GluN1:GluN2 ratio 1:2)
Nature of the experiment: Two-electrode voltage-clamp recordings in Xenopus laevis oocytes, GluN2A. Format: cell-based. To be noted: oocytes, 100 μM glutamate and 30 μM glycine. Put shortly:
(§1)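 Oocytes injected with rat GluN1/GluN2 cRNA (1:2), held 2–5 days at 15–17 °C, clamped at −40 mV in Ba2+-containing recording solution, pH 7.4, 23 °C. Compounds applied (up to 100 μM) with 100 μM glutamate plus 30 μM glycine. IC50 and Hill slope from concentration-response fits of averaged current inhibition.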

For experiment [2], the system named is recombinant GluN2A-D subunits. Nature of the experiment: Two-electrode voltage-clamp recordings, statements on all receptors. It counts as cell-based, rat. How it is done: All target compounds were evaluated for activity by the Traynelis laboratory at Emory University using two-electrode voltage-clamp recordings performed in Xenopus laevis oocytes expressing recombinant GluN2A-D subunits (Table 1). […] Two ester compounds 997-65 and 997-66 also performed no inhibition at GluN2A to GluN2D receptors. […] Consequently, for the compounds that Acker et al. already published, it was necessary to increase the concentration to 100 μM when collecting data for a concentration effect curve. […] Therefore, under this condition, we can only conclude that compound 997-67 remained potent at GluN2C/D-containing receptors, but its selectivity over GluN2A- and GluN2B-containing receptors could not be compared to 997-57. […] Finally, replacing the carboxylic acid to the bio-isostere amide yielded compounds 997-96 and 997-115, which dropped the potency 2- to 4-fold in comparison to their corresponding acids 997-74 and 997-114.
Two-electrode voltage-clamp recordings were performed in Xenopus laevis oocytes that were injected with mRNA to express recombinant rat GluN1/GluN2A, GluN1/GluN2B, GluN1/GluN2C, and GluN1/GluN2D. The recordings using unfertilized oocytes from Xenopus laevis were permitted by Emory University Institutional Animal Care and Use Committee (IACUC). An automatic injector (Nanoject II, Drummond Scientific) was used for cRNA injection using the pipettes filled with mineral oil. The cRNA that transcribed in vitro via the mMessage Machine kit (Ambion) was diluted with nuclease-free water, and then injected at GluN1/GluN2 with a ratio of 1:2. The oocytes were stored in Barth's solution that contained 88 mM NaCl, 5.0 mM Tris-HCl, 2.4 mM NaHCO3, 1.0 mM KCl, 0.84 mM MgSO4, 0.41 mM CaCl2, 0.33 mM Ca(NO3)2, 0.1 mg/ml gentamycin sulfate, 1.0 U/ml penicillin, and 1 μg/ml streptomycin at a pH of 7.4 and temperatures of 15-17° C. for two to five days before the two-electrode voltage-clamp recordings. When recording, the oocytes were placed in a perfusion chamber and continually washed with the recording solution comprised of 90 mM NaCl, 1.0 mM KCl, 0.50 mM BaCl2, 0.005 mM EDTA, and 10 mM HEPES at a pH of 7.4 and a temperature of 23° C. Glass electrodes with a tip resistance of 0.5 to 2.5 MΩ were obtained from thin-walled glass capillary tubes. Voltage electrodes and current electrodes were filled with 0.3 M and 3.0 M KCl, respectively. The recordings were executed with the oocytes membrane potential holding at −40 m V by an OC-725 amplifier (Warner Instrument Co). All compounds were dissolved in dimethyl sulfoxide (DMSO) as 20 mM stock solutions and future diluted to reach the desired concentration (0.05-0.5% (vol/vol) DMSO) in recording solution comprised of 30 μM glycine and 100 μM glutamate. Each compound was recorded 3-7 times in the least 4 oocytes from at least 2 different Xenopus laevis.
To evaluate the inhibition of compounds, the concentration-response curve was fitted with the average two-electrode voltage-clamp recording results with the equation
[formula] • where IC50 is the concentration of compounds that inhibit half maximal of the current response and N is the Hill slope.
Background: In two-electrode clamp one electrode senses voltage and the other passes current.

In experiment [3] the target is T2, recombinant rat GluN1/GluN2B (Rattus norvegicus, UniProt Q00960).
T2 construct: expressed in transfected cells; host or cells: Xenopus laevis oocytes injected with cRNA (GluN1:GluN2 ratio 1:2)
Nature of the experiment: Two-electrode voltage-clamp recordings in Xenopus laevis oocytes, GluN2B. Format: cell-based. The following applies: oocytes, 100 μM glutamate and 30 μM glycine. Put shortly: as §1

Experiment [4] concerns the target T3, recombinant rat GluN1/GluN2C (Rattus norvegicus, UniProt Q00961).
T3 construct: expressed in transfected cells; host or cells: Xenopus laevis oocytes injected with cRNA (GluN1:GluN2 ratio 1:2)
Nature of the experiment: Two-electrode voltage-clamp recordings in Xenopus laevis oocytes, GluN2C. Format: cell-based. To be noted: oocytes, 100 μM glutamate and 30 μM glycine. Put shortly:
as §1

Experiment [5] deals with T4, recombinant rat GluN1/GluN2D (Rattus norvegicus, UniProt Q62645).
T4 construct: expressed in transfected cells; host or cells: Xenopus laevis oocytes injected with cRNA (GluN1:GluN2 ratio 1:2)
Nature of the experiment: Two-electrode voltage-clamp recordings in Xenopus laevis oocytes, GluN2D. It counts as cell-based. The following applies: oocytes, 100 μM glutamate and 30 μM glycine. An outline of the steps: as §1

In a further experiment the test system is GluN2C- and GluN2D. To be noted: GluN2C- and GluN2D-selective potentiator; read-out: EC50 (potentiation); cited from earlier work.
Experiment [6] concerns the target NMDA receptors that contain GluN2B (Homo sapiens, UniProt Q05586+Q13224). The following applies: cited from earlier work.
In the next experiment the target is GluN2C subunit (Homo sapiens, UniProt Q14957). To be noted: read-out: EC50 (potentiation at GluN2C subunit); cited from earlier work.

T2 sequence (Q00960 27-1482, other chains not shown): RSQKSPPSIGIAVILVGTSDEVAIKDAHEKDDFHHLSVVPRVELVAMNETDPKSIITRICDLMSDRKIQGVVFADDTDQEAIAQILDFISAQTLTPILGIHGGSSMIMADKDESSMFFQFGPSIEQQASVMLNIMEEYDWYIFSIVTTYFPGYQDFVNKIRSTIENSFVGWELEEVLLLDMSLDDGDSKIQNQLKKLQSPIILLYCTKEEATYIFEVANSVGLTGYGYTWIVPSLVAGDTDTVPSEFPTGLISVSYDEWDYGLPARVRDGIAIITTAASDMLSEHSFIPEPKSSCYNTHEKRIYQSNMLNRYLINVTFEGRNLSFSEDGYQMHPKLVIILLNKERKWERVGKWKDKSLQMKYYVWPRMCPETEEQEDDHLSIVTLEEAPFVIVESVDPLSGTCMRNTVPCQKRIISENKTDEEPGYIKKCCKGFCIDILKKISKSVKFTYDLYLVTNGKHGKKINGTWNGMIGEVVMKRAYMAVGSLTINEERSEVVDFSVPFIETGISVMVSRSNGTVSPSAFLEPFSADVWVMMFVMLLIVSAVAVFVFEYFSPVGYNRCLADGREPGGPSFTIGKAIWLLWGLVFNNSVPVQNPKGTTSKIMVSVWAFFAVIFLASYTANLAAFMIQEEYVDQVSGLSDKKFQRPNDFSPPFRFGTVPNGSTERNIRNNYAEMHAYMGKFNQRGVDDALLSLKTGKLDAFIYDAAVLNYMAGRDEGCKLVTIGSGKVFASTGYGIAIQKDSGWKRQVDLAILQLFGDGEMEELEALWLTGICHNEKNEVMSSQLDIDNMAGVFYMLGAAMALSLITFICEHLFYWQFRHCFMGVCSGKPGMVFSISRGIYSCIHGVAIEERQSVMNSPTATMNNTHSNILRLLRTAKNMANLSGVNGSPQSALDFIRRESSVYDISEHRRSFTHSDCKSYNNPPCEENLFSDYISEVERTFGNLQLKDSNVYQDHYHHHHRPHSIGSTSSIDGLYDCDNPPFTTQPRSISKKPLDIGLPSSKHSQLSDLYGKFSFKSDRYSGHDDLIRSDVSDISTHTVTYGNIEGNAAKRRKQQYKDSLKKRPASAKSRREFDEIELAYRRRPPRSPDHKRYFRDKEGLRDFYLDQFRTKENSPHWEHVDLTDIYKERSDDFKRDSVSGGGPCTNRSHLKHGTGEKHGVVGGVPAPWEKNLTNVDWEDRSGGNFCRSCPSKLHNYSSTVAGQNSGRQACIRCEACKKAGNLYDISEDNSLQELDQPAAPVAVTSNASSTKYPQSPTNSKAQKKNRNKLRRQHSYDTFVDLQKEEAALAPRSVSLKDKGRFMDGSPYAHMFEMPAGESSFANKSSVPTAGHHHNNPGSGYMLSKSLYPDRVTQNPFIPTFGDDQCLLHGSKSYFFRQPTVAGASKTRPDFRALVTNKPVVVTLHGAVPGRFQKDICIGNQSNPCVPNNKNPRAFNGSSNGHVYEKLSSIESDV
T3 sequence (Q00961 20-1237, other chains not shown): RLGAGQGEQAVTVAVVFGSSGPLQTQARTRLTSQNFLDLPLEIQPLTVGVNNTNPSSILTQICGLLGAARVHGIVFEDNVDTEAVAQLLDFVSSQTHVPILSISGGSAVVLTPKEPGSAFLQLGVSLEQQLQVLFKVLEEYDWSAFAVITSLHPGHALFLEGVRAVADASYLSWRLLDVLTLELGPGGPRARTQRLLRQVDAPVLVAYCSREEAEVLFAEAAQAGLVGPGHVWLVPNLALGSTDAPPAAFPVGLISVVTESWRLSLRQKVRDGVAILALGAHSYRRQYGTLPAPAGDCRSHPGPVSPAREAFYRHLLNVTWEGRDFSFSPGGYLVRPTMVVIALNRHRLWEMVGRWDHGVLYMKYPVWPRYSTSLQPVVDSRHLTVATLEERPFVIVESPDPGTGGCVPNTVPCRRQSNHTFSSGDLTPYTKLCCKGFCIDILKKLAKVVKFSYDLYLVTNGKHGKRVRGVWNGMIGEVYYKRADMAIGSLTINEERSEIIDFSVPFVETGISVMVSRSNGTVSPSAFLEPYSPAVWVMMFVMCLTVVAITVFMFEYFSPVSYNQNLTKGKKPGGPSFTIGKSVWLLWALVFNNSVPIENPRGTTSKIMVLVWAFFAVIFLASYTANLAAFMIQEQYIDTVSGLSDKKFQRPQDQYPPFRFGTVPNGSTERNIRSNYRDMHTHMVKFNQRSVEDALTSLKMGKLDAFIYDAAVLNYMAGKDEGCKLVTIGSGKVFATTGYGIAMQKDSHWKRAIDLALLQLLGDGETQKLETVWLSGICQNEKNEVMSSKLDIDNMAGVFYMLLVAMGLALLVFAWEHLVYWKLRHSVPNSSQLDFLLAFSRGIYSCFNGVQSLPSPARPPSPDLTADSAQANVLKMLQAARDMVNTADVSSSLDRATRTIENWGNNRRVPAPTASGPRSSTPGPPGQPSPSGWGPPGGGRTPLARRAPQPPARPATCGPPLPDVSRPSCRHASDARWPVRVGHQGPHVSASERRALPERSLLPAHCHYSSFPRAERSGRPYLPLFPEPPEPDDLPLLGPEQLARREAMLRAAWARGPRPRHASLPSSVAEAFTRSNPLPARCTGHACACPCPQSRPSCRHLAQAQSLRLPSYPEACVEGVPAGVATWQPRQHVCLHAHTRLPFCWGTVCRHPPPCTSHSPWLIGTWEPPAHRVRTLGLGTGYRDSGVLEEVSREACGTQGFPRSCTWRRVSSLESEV
T1 sequence (Q00959 23-1464, other chains not shown): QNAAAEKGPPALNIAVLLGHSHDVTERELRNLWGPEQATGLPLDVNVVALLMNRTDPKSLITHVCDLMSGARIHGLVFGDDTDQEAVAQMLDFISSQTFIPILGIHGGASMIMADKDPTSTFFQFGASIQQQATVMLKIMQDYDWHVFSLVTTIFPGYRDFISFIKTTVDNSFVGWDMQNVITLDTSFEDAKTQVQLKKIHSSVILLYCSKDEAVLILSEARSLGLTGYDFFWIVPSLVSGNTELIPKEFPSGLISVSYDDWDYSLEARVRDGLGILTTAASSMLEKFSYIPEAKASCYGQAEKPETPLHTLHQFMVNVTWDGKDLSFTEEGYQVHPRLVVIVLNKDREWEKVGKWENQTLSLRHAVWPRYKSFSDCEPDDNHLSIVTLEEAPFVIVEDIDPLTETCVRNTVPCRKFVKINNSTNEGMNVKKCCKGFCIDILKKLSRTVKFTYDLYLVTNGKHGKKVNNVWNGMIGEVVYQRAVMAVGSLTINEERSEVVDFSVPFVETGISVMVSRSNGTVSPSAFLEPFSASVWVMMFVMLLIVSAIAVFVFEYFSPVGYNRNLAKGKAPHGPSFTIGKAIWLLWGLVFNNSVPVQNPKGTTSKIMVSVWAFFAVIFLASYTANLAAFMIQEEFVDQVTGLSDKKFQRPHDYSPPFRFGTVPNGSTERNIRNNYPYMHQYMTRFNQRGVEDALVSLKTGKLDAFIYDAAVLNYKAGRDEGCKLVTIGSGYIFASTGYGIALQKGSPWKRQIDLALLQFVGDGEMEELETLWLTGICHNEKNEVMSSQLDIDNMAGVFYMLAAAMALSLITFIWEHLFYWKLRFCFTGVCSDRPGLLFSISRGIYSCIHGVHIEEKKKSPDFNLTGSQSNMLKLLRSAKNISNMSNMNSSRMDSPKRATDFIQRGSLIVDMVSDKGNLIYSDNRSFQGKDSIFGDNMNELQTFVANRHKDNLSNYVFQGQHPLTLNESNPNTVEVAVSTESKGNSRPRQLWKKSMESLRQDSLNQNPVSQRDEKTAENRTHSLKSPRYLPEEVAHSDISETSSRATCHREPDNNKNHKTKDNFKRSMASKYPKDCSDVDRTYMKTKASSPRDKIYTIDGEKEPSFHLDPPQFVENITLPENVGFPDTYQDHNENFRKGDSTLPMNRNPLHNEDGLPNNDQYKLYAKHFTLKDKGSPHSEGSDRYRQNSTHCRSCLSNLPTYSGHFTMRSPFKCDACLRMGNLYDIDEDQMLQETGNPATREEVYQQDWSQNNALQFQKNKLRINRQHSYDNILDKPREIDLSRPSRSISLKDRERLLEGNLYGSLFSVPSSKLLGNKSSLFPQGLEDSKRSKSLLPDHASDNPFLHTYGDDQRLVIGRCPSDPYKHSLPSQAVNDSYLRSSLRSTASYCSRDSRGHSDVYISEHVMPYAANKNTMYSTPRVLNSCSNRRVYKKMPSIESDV

With `O=C(O)CCC(=O)N1N=C(c2c(-c3ccc(Cl)cc3)c3ccccc3[nH]c2=O)CC1c1ccncc1` (centres unmarked) [997-79, 4-(3-(4-(4-chlorophenyl)-2-oxo-1,2-dihydroquinolin-3-yl)-5-(pyridin-4-yl)-4,5-dihydro-1H-pyrazol-1-yl)-4-oxobutanoic acid], the “GluN2A IC50” value in experiment [1] was “NE (NE indicates less than 50% inhibition at 30 μM.)”. The “activity at all receptors (GluN2A to GluN2D), in words” value (shortened to “activity at all receptors”) in experiment [2] is “inactive”. Moreover, the “GluN2B IC50” value in experiment [3] was “NE (NE indicates less than 50% inhibition at 30 μM.)”. For the same compound, the “GluN2C IC50” value in experiment [4] is listed as “NE (NE indicates less than 50% inhibition at 30 μM.)”. Further, the “GluN2D IC50” value in experiment [5] was “NE (NE indicates less than 50% inhibition at 30 μM.)”.
For the compound `O=C(O)CCC(=O)N1N=C(c2c(-c3ccc(Cl)cc3)c3ccccc3[nH]c2=O)CC1c1cccnc1` (centres unmarked) [997-83, 4-(3-(4-(4-chlorophenyl)-2-oxo-1,2-dihydroquinolin-3-yl)-5-(pyridin-3-yl)-4,5-dihydro-1H-pyrazol-1-yl)-4-oxobutanoic acid], the “GluN2A IC50” value in experiment [1] is “NE (NE indicates less than 50% inhibition at 30 μM.)”. Further, the “activity at all receptors” value in experiment [2] is “inactive”. Also, the “GluN2B IC50” value in experiment [3] is reported as “NE (NE indicates less than 50% inhibition at 30 μM.)”. For the same compound, in experiment [4], the “GluN2C IC50” value is listed as “NE (NE indicates less than 50% inhibition at 30 μM.)”. Besides, in experiment [5], the “GluN2D IC50” value is “NE (NE indicates less than 50% inhibition at 30 μM.)”.
Consider `COc1ccc(OCC2c3cc(OC)c(OC)cc3CCN2C(=O)c2cccc(Cl)c2)cc1` (centres unmarked) [CIQ, (3-chlorophenyl)(6,7-dimethoxy-1-((4-methoxyphenoxy)methyl)3,4-dihydroisoquinolin-2(1H)-yl)methanone], for which the half-maximal effective concentration (EC50) with GluN2C- and GluN2D was 3 to 6 µM.
In the case of `O=C(O)CC(F)(F)C(=O)N1N=C(c2ccccc2-c2cccc(F)c2)CC1c1ccc(Cl)cc1` (centres unmarked) [997-100, 4-(5-(4-chlorophenyl)-3-(3′-fluoro-[1,1′-biphenyl]-2-yl)-4,5-dihydro-1H-pyrazol-1-yl)-3,3-difluoro-4-oxobutanoic acid], the “GluN2A IC50” value in experiment [1] is reported as “NE (NE indicates less than 50% inhibition at 30 μM.)”. The “activity at all receptors” value in experiment [2] is recorded as “lost the activity”. In addition, the “GluN2B IC50” value in experiment [3] is given as “NE (NE indicates less than 50% inhibition at 30 μM.)”. In addition, the “GluN2C IC50” value in experiment [4] is “NE (NE indicates less than 50% inhibition at 30 μM.)”. The “GluN2D IC50” value in experiment [5] is “NE (NE indicates less than 50% inhibition at 30 μM.)”.
In the case of `O=C(O)CC(F)(F)C(=O)N1N=C(c2ccccc2-c2ccc(Cl)cc2)CC1c1cccc2c1OCO2` (centres unmarked) [997-119, 4-(5-(benzo[d][1,3]dioxol-4-yl)-3-(4′-chloro-[1,1′-biphenyl]-2-yl)-4,5-dihydro-1H-pyrazol-1-yl)-3,3-difluoro-4-oxobutanoic acid], the “GluN2A IC50” value in experiment [1] is recorded as “NE (NE indicates less than 50% inhibition at 30 μM.)”. Further, the “activity at all receptors” value in experiment [2] was “inactive”. Further, the “GluN2B IC50” value in experiment [3] is listed as “NE (NE indicates less than 50% inhibition at 30 μM.)”. For the same compound, the “GluN2C IC50” value in experiment [4] is on record as “NE (NE indicates less than 50% inhibition at 30 μM.)”. Besides, in experiment [5], the “GluN2D IC50” value is on record as “NE (NE indicates less than 50% inhibition at 30 μM.)”.
In the case of `Cc1c(C2=NN(C(=O)CCC(=O)O)C(c3ccc(Cl)cc3)C2)c(=O)[nH]c2ccccc12` (centres unmarked) [997-76, 4-(5-(4-chlorophenyl)-3-(4-methyl-2-oxo-1,2-dihydroquinolin-3-yl)-4,5-dihydro-1H-pyrazol-1-yl)-4-oxobutanoic acid], the “GluN2A IC50” value in experiment [1] is “NE (NE indicates less than 50% inhibition at 30 μM.)”. In addition, the “activity at all receptors” value in experiment [2] is “inactive”. For the same compound, the “GluN2B IC50” value in experiment [3] is “NE (NE indicates less than 50% inhibition at 30 μM.)”. Moreover, the “GluN2C IC50” value in experiment [4] is “NE (NE indicates less than 50% inhibition at 30 μM.)”. The “GluN2D IC50” value in experiment [5] was “NE (NE indicates less than 50% inhibition at 30 μM.)”.
For `CCOC(=O)C(F)(F)CC(=O)N1N=C(c2c(-c3cccc(F)c3)c3ccccc3[nH]c2=O)CC1c1ccc(Cl)cc1` (centres unmarked) [997-65, Ethyl 4-{5-(4-chlorophenyl)-3-[4-(3-fluorophenyl)-2-oxo-1,2-dihydroquinolin-3-yl]-4,5-dihydro-1H-pyrazol-1-yl}-2,2-difluoro-4-oxobutanoate], the “GluN2A IC50” value in experiment [1] is “NE (NE indicates less than 50% inhibition at 30 μM.)”. In experiment [2], the “activity at all receptors” value was “no inhibition”. In experiment [3], the “GluN2B IC50” value is given as “NE (NE indicates less than 50% inhibition at 30 μM.)”. In addition, the “GluN2C IC50” value in experiment [4] is on record as “NE (NE indicates less than 50% inhibition at 30 μM.)”. For the same compound, in experiment [5], the “GluN2D IC50” value is on record as “NE (NE indicates less than 50% inhibition at 30 μM.)”.
Take `CC(C(O)c1ccc(O)cc1)N1CCC(Cc2ccccc2)CC1` (centres unmarked) [Ifenprodil]: the “fold more potent at GluN2B than at GluN2A, GluN2C or GluN2D containing receptors” value in experiment [6] is “approximately 200 fold”.
As for `O=C(O)CCC(=O)N1N=C(c2ccccc2-c2ccc(Cl)cc2)CC1c1cccc2c1OCO2` (centres unmarked) [997-122, 4-(5-(benzo[d][1,3]dioxol-4-yl)-3-(4′-chloro-[1,1′-biphenyl]-2-yl)-4,5-dihydro-1H-pyrazol-1-yl)-4-oxobutanoic acid], in experiment [1], the “GluN2A IC50” value is given as “NE (NE indicates less than 50% inhibition at 30 μM.)”. Also, the “activity at all receptors” value in experiment [2] is “inactive”. Moreover, the “GluN2B IC50” value in experiment [3] was “NE (NE indicates less than 50% inhibition at 30 μM.)”. In experiment [4], the “GluN2C IC50” value is reported as “NE (NE indicates less than 50% inhibition at 30 μM.)”. In experiment [5], the “GluN2D IC50” value was “NE (NE indicates less than 50% inhibition at 30 μM.)”.
For `COC(=O)c1ccc(C2C(C(C)=O)=C(O)C(=O)N2CCc2c(C)[nH]c3ccccc23)cc1` (centres unmarked) [PYD-106], the EC50 on GluN2C subunit was 13 µM.

One may read the EC50 as the concentration at which the effect is half-maximal.

The values above are taken from US12391664B2, “GluN2C/D subunit selective antagonists of the N-methyl-D-aspartate receptor” (Emory University, priority 2018, dated 2025).
